Laboratory results: the supplement of paper PMC10627819

Columns and labels:
S. aureus DSM 20231 [1] = experiment: fitness (endpoint OD595 vs no drug) (fraction); higher = more growth
Procedure, shortened: (§1)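 Fitness is computed from the optical density at which cultures reach stationary phase, divided by the robust mean of no-drug control wells. Any value above 1 is set to 1. Cultures started at OD595 0.01 in 384-well plates with TSB, LB Lennox or CY at 37 °C, and OD595 was read every 30 min for 14 h against a first-reading background.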

S. aureus Newman [2] = experiment: as above
Procedure, shortened: as §1

S. pneumoniae D39V [3] = experiment: as above
Procedure, shortened: as §1

B. subtilis 168 = experiment: Bliss interaction score (quartile over a dose matrix) (fitness difference); higher = more antagonism (negative = synergy)
Procedure, shortened: (§2)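 The Bliss score takes observed fitness and subtracts the expected fitness, calculated as a product of single-drug fitness values. Those single-drug values were inferred from the combination data. Fitness is OD595 at entry into stationary phase divided by the plate's robust no-drug mean, capped at 1, and the score is summarised by quartiles across technical, biological and donor/recipient replicates.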

S. aureus DSM 20231 [4] = experiment: as above
Procedure, shortened: as §2

S. aureus Newman [5] = experiment: as above
Procedure, shortened: as §2

S. pneumoniae D39V [6] = experiment: as above
Procedure, shortened: as §2
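Throughout, for Bliss interaction score (quartile over a dose matrix): first quartile when negative (synergy) and third quartile when positive (antagonism).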
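Throughout, for fitness (endpoint OD595 vs no drug): OD595 on entry to stationary phase over no-drug wells; at most 1.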

CCCCCCCCCC(=O)N[C@@H](Cc1c[nH]c2ccccc12)C(=O)N[C@H](CC(N)=O)C(=O)N[C@@H](CC(=O)O)C(=O)N[C@@H]1C(=O)NCC(=O)N[C@@H](CCCN)C(=O)N[C@@H](CC(=O)O)C(=O)N[C@H](C)C(=O)N[C@@H](CC(=O)O)C(=O)NCC(=O)N[C@H](CO)C(=O)N[C@@H]([C@H](C)CC(=O)O)C(=O)N[C@@H](CC(=O)c2ccccc2N)C(=O)O[C@@H]1C [Daptomycin] + Cn1nnc(-c2ccc(-c3ccc(N4C[C@H](CO)OC4=O)cc3F)cn2)n1 [Tedizolid]
fitness, S. aureus DSM 20231 [1], one replicate
Details	partner 0.0625 µg/mL	partner 0.125 µg/mL	partner 0.25 µg/mL
first compound 0.125 µg/mL	0.918	0.765	0.354
first compound 0.25 µg/mL	0.894	0.762	0.375

fitness
Details	partner 0.03125 µg/mL	partner 0.0625 µg/mL	partner 0.125 µg/mL	partner 0.25 µg/mL	partner 0.5 µg/mL
S. aureus DSM 20231 [1], first compound 0.5 µg/mL	–	0.896	0.832	0.322	–
S. aureus DSM 20231 [1], first compound 1 µg/mL	–	0.907	0.78	0.293	–
S. aureus DSM 20231 [1], first compound 2 µg/mL	–	0.896	0.677	0.389	–
S. aureus Newman [2], first compound 0.125 µg/mL	–	0.977	0.914	–	–
S. aureus Newman [2], first compound 0.25 µg/mL	–	0.97	0.879	–	–
S. aureus Newman [2], first compound 0.5 µg/mL	–	0.964	0.914	–	–
S. pneumoniae D39V [3], first compound 1 µg/mL	0.916	0.942	0.619	0.23	0.0913
S. pneumoniae D39V [3], first compound 2 µg/mL	0.917	0.905	0.625	0.245	0.0924
S. pneumoniae D39V [3], first compound 4 µg/mL	0.93	0.966	0.643	0.256	0.0875

Details	Bliss interaction score
B. subtilis 168	0.0472
S. aureus DSM 20231 [4]	0.0665
S. aureus Newman [5]	0.0584
S. pneumoniae D39V [6]	-0.141

CCN(CC)CCOC(=O)c1ccc(N)cc1 [Procaine] + CN[C@H](CC(C)C)C(=O)N[C@H]1C(=O)N[C@@H](CC(N)=O)C(=O)N[C@H]2C(=O)N[C@H]3C(=O)N[C@H](C(=O)N[C@H](C(=O)O)c4cc(O)cc(O)c4-c4cc3ccc4O)[C@H](O)c3ccc(c(Cl)c3)Oc3cc2cc(c3O[C@@H]2O[C@H](CO)[C@@H](O)[C@H](O)[C@H]2O[C@H]2C[C@](C)(N)[C@H](O)[C@H](C)O2)Oc2ccc(cc2Cl)[C@H]1O [Vancomycin]
fitness
Details	partner 0.03125 µg/mL	partner 0.0625 µg/mL	partner 0.125 µg/mL	partner 0.1875 µg/mL	partner 0.375 µg/mL	partner 0.75 µg/mL
S. aureus DSM 20231 [1], first compound 85.5 µg/mL	–	–	–	0.969	0.999	0.953
S. aureus DSM 20231 [1], first compound 171 µg/mL	–	–	–	0.953	≥ 1	0.982
S. aureus DSM 20231 [1], first compound 342 µg/mL	–	–	–	0.883	0.983	≥ 1
S. aureus Newman [2], first compound 342 µg/mL	–	–	–	0.962	0.999	0.98
S. pneumoniae D39V [3], first compound 85.5 µg/mL	≥ 1	0.963	0.742	–	–	–
S. pneumoniae D39V [3], first compound 171 µg/mL	0.978	0.955	0.903	–	–	–
S. pneumoniae D39V [3], first compound 342 µg/mL	0.952	0.921	0.907	–	–	–

fitness, S. pneumoniae D39V [3], one replicate
Details	first compound 85.5 µg/mL	first compound 171 µg/mL	first compound 342 µg/mL
partner 0.25 µg/mL	0.0963	0.383	0.674
partner 0.5 µg/mL	0.0592	0.0925	0.148

Details	Bliss interaction score
B. subtilis 168	0.0237
S. aureus DSM 20231 [4]	0.0492
S. aureus Newman [5]	0.0558
S. pneumoniae D39V [6]	-0.0761

CCN(CC)CCOC(=O)c1ccc(N)cc1 [Procaine] + Cn1nnc(-c2ccc(-c3ccc(N4C[C@H](CO)OC4=O)cc3F)cn2)n1 [Tedizolid]
fitness
Details	first compound 85.5 µg/mL	first compound 171 µg/mL	first compound 342 µg/mL
S. aureus DSM 20231 [1], partner 0.0625 µg/mL	0.789	0.887	0.81
S. aureus DSM 20231 [1], partner 0.25 µg/mL	0.067	0.0661	0.0739
S. aureus Newman [2], partner 0.0625 µg/mL	≥ 1	0.972	0.972
S. aureus Newman [2], partner 0.125 µg/mL	0.969	0.939	0.951
S. pneumoniae D39V [3], partner 0.03125 µg/mL	0.989	0.975	0.97
S. pneumoniae D39V [3], partner 0.0625 µg/mL	0.954	0.943	0.973
S. pneumoniae D39V [3], partner 0.125 µg/mL	0.803	0.862	0.796

fitness, S. pneumoniae D39V [3], one replicate
Details	first compound 85.5 µg/mL	first compound 171 µg/mL	first compound 342 µg/mL
partner 0.25 µg/mL	0.67	0.744	0.695
partner 0.5 µg/mL	0.282	0.311	0.353

Details	Bliss interaction score
B. subtilis 168	-0.0545
S. aureus DSM 20231 [4]	-0.0772
S. aureus Newman [5]	0.0692
S. pneumoniae D39V [6]	-0.0797

Cn1nnc(-c2ccc(-c3ccc(N4C[C@H](CO)OC4=O)cc3F)cn2)n1 [Tedizolid] + CC1=C\[C@@H](O)CC(=O)Cc2nc(co2)C(=O)N2CCC=C2C(=O)O[C@H](C(C)C)[C@H](C)/C=C/C(=O)NC\C=C\1 [Virginiamycin M1]
fitness
Details	first compound 0.03125 µg/mL	first compound 0.0625 µg/mL	first compound 0.125 µg/mL	first compound 0.25 µg/mL	first compound 0.5 µg/mL
S. aureus DSM 20231 [1], partner 0.0625 µg/mL	–	0.839	0.579	0.194	–
S. aureus DSM 20231 [1], partner 0.125 µg/mL	–	0.889	0.542	0.212	–
S. aureus DSM 20231 [1], partner 0.25 µg/mL	–	0.888	–	0.102	–
S. aureus Newman [2], partner 0.0625 µg/mL	–	0.965	0.814	–	–
S. aureus Newman [2], partner 0.125 µg/mL	–	0.97	0.823	–	–
S. aureus Newman [2], partner 0.25 µg/mL	–	0.997	0.843	–	–
S. pneumoniae D39V [3], partner 0.5 µg/mL	0.972	0.962	0.807	–	–
S. pneumoniae D39V [3], partner 1 µg/mL	0.978	0.973	0.807	–	–
S. pneumoniae D39V [3], partner 2 µg/mL	0.955	0.948	0.824	0.785	0.607

fitness, one replicate
Details	first compound 0.0625 µg/mL	first compound 0.125 µg/mL	first compound 0.25 µg/mL	first compound 0.5 µg/mL
S. aureus DSM 20231 [1], partner 0.5 µg/mL	0.676	0.31	0.0481	–
S. aureus DSM 20231 [1], partner 1 µg/mL	0.681	0.327	0.0496	–
S. aureus Newman [2], partner 0.5 µg/mL	0.885	0.91	0.57	–
S. aureus Newman [2], partner 1 µg/mL	0.956	0.956	0.565	–
S. aureus Newman [2], partner 2 µg/mL	0.851	0.785	0.456	–
S. pneumoniae D39V [3], partner 0.15 µg/mL	–	0.905	0.835	0.534
S. pneumoniae D39V [3], partner 0.3 µg/mL	–	0.892	0.818	0.505
S. pneumoniae D39V [3], partner 0.5 µg/mL	–	–	0.838	0.659
S. pneumoniae D39V [3], partner 1 µg/mL	–	–	0.771	0.523

Details	Bliss interaction score
B. subtilis 168	-0.0674
S. aureus DSM 20231 [4]	-0.078
S. aureus Newman [5]	0.0611
S. pneumoniae D39V [6]	0.103

Cn1nnc(-c2ccc(-c3ccc(N4C[C@H](CO)OC4=O)cc3F)cn2)n1 [Tedizolid] + CN[C@H](CC(C)C)C(=O)N[C@H]1C(=O)N[C@@H](CC(N)=O)C(=O)N[C@H]2C(=O)N[C@H]3C(=O)N[C@H](C(=O)N[C@H](C(=O)O)c4cc(O)cc(O)c4-c4cc3ccc4O)[C@H](O)c3ccc(c(Cl)c3)Oc3cc2cc(c3O[C@@H]2O[C@H](CO)[C@@H](O)[C@H](O)[C@H]2O[C@H]2C[C@](C)(N)[C@H](O)[C@H](C)O2)Oc2ccc(cc2Cl)[C@H]1O [Vancomycin]
fitness
Details	first compound 0.03125 µg/mL	first compound 0.0625 µg/mL	first compound 0.125 µg/mL	first compound 0.25 µg/mL	first compound 0.5 µg/mL
S. aureus DSM 20231 [1], partner 0.1875 µg/mL	–	0.89	0.754	0.348	–
S. aureus DSM 20231 [1], partner 0.375 µg/mL	–	0.891	0.723	0.377	–
S. aureus DSM 20231 [1], partner 0.75 µg/mL	–	0.924	0.867	0.397	–
S. aureus Newman [2], partner 0.1875 µg/mL	–	0.977	0.87	–	–
S. aureus Newman [2], partner 0.375 µg/mL	–	0.966	0.845	–	–
S. aureus Newman [2], partner 0.75 µg/mL	–	0.939	0.824	–	–
S. pneumoniae D39V [3], partner 0.03125 µg/mL	–	–	0.809	0.73	0.482
S. pneumoniae D39V [3], partner 0.0625 µg/mL	–	–	0.819	0.718	0.473
S. pneumoniae D39V [3], partner 0.125 µg/mL	0.976	0.968	0.833	–	–

Details	Bliss interaction score
B. subtilis 168	0.0605
S. aureus DSM 20231 [4]	-0.0656
S. aureus Newman [5]	0.046
S. pneumoniae D39V [6]	0.107
